Test results as given in US8673578B2, “Methods of identifying antagonists of the hTAS2R46 bitter taste receptor” (Deutsches Institut für Ernahrungsforschung Potsdam-Rehbrücke, priority 2009, dated 2014).

Legend:
Format in all cases: cell-based
hTAS2R1 = target: T1, hTAS2R1 (Homo sapiens, UniProt Q9NYW7); assay: calcium imaging (FLIPR), activation of hTAS2R-transfected HEK293T-Gα16gust44 cells; settings: 100 μM test substance, bath application
T1 construct: expressed in transfected cells; host or cells: HEK293T cells stably expressing chimeric Gα16gust44, transient transfection
T1 sequence (Q9NYW7 1-299): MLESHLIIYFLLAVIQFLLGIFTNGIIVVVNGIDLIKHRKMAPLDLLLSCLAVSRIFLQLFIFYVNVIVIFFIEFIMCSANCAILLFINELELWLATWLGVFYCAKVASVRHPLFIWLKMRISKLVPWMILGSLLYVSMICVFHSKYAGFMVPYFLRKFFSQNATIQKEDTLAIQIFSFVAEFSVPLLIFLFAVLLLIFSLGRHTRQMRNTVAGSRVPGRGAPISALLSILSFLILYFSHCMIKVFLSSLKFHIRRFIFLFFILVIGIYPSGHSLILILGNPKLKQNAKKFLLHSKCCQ
From the text: (§1) Human TAS2R cDNAs were cloned into pcDNA5/FRT (Invitrogen, San Diego, Calif.). For adequate plasma membrane targeting, receptor cDNA was fused to the aminoterminal sequence of the rat somatostatin type 3 receptor at the aminoterminus of the recombinant protein (Bufe, B., T. Hofmann, et al. (2002) Nat Genet. 32(3): 397-401). For immunological detection, the Herpes simplex Glycoprotein D epitope was supplemented at the carboxyterminus of the recombinant protein (Bufe et al., supra). Receptor constructs were transiently transfected into HEK293T cells stably expressing the chimeric G protein subunit Gα16gust44 (Ueda, T., S. Ugawa, et al. (2003) J Neurosci 23(19): 7376-80) using Lipofectamine 2000 (Invitrogen, San Diego, Calif.) in 96-well plates.
(§2) Calcium Imaging experiments were performed 24 h after transfection using a Fluorometric Imaging Plate Reader (FLIPR, Molecular Devices, Munich, Germany) as previously described (Bufe et al., supra). Taste active compounds were ordered from Sigma (Sigma-Aldrich, Taufkirchen, Germany). Absinthin, 3β hydroxy dihydro costunolide and 3β hydroxy pelenolide were kindly provided by Giovanni Appendino (Novara, Italy). Test substances were directly dissolved in C1 buffer (130 mM NaCl, 10 mM Na-Hepes, 10 mM Glucose, 5 mM KCl, 2 mM CaCl2, pH 7.4) or in DMSO, respectively. DMSO stocks were further diluted in C1 buffer not exceeding a final DMSO concentration of 1% on the cells. For the investigation of antagonistic effects, test substances were premixed. Agonists were applied at concentrations corresponding to EC90, except where indicated otherwise (Table 2). Data were collected from 3 independent experiments performed in quadruplicates and processed with SigmaPlot (SPSS, Chicago, Ill.). Fluorescence signals after application of test substances were corrected for and normalized to background fluorescence (ΔF/F═(F−F0)/F0), and baseline noise was subtracted. Calculation of dose-response curves was done by nonlinear regression using the function f(y)=((a−d)/(1+(x/EC50)^nH)+d).
(§3) In a first series of experiments we tested the two sesquiterpene lactones 3β hydroxy dihydro costunolide (formula (I) in FIG. 1) and 3β hydroxy pelenolide (formula (II) in FIG. 1) for their ability to activate hTAS2 receptor-expressing HEK293T cells.
(§4) Signal amplitudes were comparatively small (FIG. 2C).

hTAS2R4 = target: T2, hTAS2R4 (Homo sapiens, UniProt Q9NYW5); assay: as above; settings: 100 μM test substance, bath application
T2 construct: expressed in transfected cells; host or cells: HEK293T cells stably expressing chimeric Gα16gust44, transient transfection
T2 sequence (Q9NYW5 1-299): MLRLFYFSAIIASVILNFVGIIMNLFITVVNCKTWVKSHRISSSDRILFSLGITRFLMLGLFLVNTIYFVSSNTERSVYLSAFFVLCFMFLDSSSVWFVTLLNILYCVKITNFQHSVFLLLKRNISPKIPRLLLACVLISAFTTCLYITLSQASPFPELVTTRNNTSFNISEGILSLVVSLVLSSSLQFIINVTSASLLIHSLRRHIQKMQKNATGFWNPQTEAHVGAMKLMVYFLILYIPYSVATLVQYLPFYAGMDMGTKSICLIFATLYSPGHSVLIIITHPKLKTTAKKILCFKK
From the text: as §1, §2, §3, §4

hTAS2R7 [1] = target: T3, hTAS2R7 (Homo sapiens, UniProt Q9NYW3); assay: as above; settings: 100 μM test substance, bath application
T3 construct: expressed in transfected cells; host or cells: HEK293T cells stably expressing chimeric Gα16gust44, transient transfection
T3 sequence (Q9NYW3 1-318): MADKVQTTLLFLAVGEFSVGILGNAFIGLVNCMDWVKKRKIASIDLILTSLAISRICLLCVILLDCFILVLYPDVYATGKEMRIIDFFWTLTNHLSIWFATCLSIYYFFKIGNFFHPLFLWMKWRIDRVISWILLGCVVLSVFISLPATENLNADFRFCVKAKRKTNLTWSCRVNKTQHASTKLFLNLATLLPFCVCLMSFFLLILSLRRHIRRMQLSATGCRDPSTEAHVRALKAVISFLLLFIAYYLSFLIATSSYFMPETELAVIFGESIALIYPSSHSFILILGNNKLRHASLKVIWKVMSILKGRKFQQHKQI
From the text: as §1, §2, §3, §4

hTAS2R8 = target: T4, hTAS2R8 (Homo sapiens, UniProt Q9NYW2); assay: as above; settings: 100 μM test substance, bath application
T4 construct: expressed in transfected cells; host or cells: HEK293T cells stably expressing chimeric Gα16gust44, transient transfection
T4 sequence (Q9NYW2 1-309): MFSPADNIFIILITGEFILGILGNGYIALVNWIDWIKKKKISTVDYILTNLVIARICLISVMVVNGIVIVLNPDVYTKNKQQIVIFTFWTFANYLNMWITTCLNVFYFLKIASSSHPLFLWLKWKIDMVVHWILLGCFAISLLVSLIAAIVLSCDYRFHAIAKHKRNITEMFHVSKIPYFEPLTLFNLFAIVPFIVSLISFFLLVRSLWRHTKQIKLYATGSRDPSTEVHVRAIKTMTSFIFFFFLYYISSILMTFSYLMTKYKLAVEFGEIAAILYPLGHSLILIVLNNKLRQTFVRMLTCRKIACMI
From the text: as §1, §2, §3, §4

hTAS2R7 [2] = target: T3, hTAS2R7; assay: calcium imaging (FLIPR), effect on agonist-dependent hTAS2R activation; settings: 100 μM test substance; agonist quinine sulfate 10 μM; agonist alone = 100%
From the text: as §1, §2
To test 3β hydroxy dihydro costunolide and 3β hydroxy pelenolide for antagonistic or enhancing effects on hTAS2R activation, transfected cells were stimulated with cognate agonist bitter substances at EC90 concentrations (Table 2) without 3β hydroxy dihydro costunolide and 3β hydroxy pelenolide. The cellular responses after application of the agonist alone were set to 100%, responses obtained after coapplication of agonists and 100 μM 3β hydroxy dihydro costunolide or 100 μM 3β hydroxy pelenolide are shown relative to this value (FIG. 4).

Compound: C/C1=C\C[C@H](O)/C(C)=C/[C@H]2OC(=O)[C@@H](C)C2CC1 (stereo partly drawn) [3β hydroxy dihydro costunolide]
- calcium response of hTAS2R1-transfected cells (hTAS2R1): responded
- calcium response of hTAS2R4-transfected cells (hTAS2R4): responded
- calcium response of hTAS2R7-transfected cells (hTAS2R7 [1]): responded
- calcium response of hTAS2R8-transfected cells (hTAS2R8): responded
- agonist-dependent response of hTAS2R7-expressing cells on coapplication (hTAS2R7 [2]): increased responses
